# Test results from US6372728B1, “Formulation for treatment of osteoporosis” (AstraZeneca AB, priority 1997, dated 2002).
# Where two headings read alike, the source gives them in different places.
# What was measured:
# [1] = taken either concurrently with or 2 hours after breakfast; cited from earlier work
# [2] = system: bone resorption in the TPTX rats; settings: TPTX rat; for decrease in blood levels of Ca2+ (FIG. 2): 0.01-5 mgP/kg
# Experimental: Female Spraque-Dawley rats from Molegaards Breeding Centre, Skensved, Denmark were used in the experiments. The animals were kept three by three in Macrolon cages, with free access to standard rat food pellets and tap water during the whole experiment. TPTX (Thyroparathyroidectomy) was preformed during anaesthesia with xylazine (Rompun®, 20 mg/ml, 0.25 ml/kg, intraperitoneally (i.p.)) and ketamine (Ketalar®, 50 mg/ml, 2.0 ml/kg, i.p.). After TPTX all rats were supplemented with 4 μg/kg thyroxin subcutaneously three times a week. TPTX adequacy was checked by determination of blood levels of Ca^2+ in a blood samples obtained from the vein of the tail 5-6 days after surgery. TPTX was considered successful if blood Ca^2+ was ≦80% of the concentration found in the rats before surgery.
# Bone resorption in the TPTX rats was stimulated by the arotinoid ethyl p-[(E)-2-(5,6,7,8-tetrahydro-5,5,8,8-tetramethyl-2-naphtyl)penyl]-benzoate (RO 13-6298, a gift from Hoffman-La Roche AG, Basel, Switzerland). RO 13-6298 was administered subcutaneously once daily (100 μg/kg in 1 ml/kg solved in polyethylene glycol 300 containing 10% ethanol) for three consecutive days (days 1, 2 and 3), day 1 being five to six days after TPTX.
compound,measurement,setting,value
"NCCCC(O)(P(=O)(O)O)P(=O)(O)O [alendronate, 4-amino-1-hydroxybutylidene-1,1-biphosphonic acid]",impairment of availability,[1],> 85%
same,decrease of blood levels of Ca2+ compared to rats treated with only saline,"[2]; 24 hours after the third oral dose, 1 mgP/kg, dissolved in saline (0.9% NaCl), free access to food",no significant decrease
same,decrease in blood levels of Ca2+ (FIG. 2),[2]; saline i.v.,dose-dependent decrease
same,decrease in blood levels of Ca2+ (FIG. 2),[2]; saline p.o.,dose-dependent decrease
